Read-outs that look alike come from different tables or passages of the source.
How the values were obtained:
[1] = tested on: HG-3 and PGA-1 cell lines; assay: alamarBlue cell viability assay, mean of both CLL cell lines; format: cell-based, human; conditions: mean of HG-3 and PGA-1
[2] = tested on: NCI/ADR-RES; assay: NCI-60 five-dose assay; format: cell-based, human
Procedure: (§1) A number of our most promising compounds identified through preliminary cell viability testing (23c, 23d, 23f, 23h, 23l, 23m, 23n, 23o, 24f, 24l, 25n and 26n) were selected for NCI drug screening in the 60-cell-line panel. The panel includes nine subcategories based on cancer tissue types, which include leukemia, ovarian, central nervous system, breast, lung, prostate, skin, renal and colon cancer. The compounds were initially assessed in a one-dose assay at a fixed treatment concentration of 10 µM. The compounds selected for further investigation were progressed to a five-dose assay across the concentration ranges of 0.01, 0.1, 1, 10 and 100 µM [72]. The endpoints assessed in the screening protocol were GI50, TGI and LC50 [72].

[3] = tested on: MALME-3M; assay: NCI-60 five-dose assay; format: cell-based, human
Procedure: as §1

[4] = tested on: EKVX; assay: NCI-60 five-dose assay; format: cell-based, human
Procedure: as §1

[5] = tested on: UACC-257; assay: NCI-60 five-dose assay; format: cell-based, human
Procedure: as §1

[6] = tested on: OVCAR-4; assay: NCI-60 five-dose assay; format: cell-based, human
Procedure: as §1

[7] = tested on: LOX IMV1; assay: NCI-60 five-dose assay; format: cell-based, human
Procedure: as §1

[8] = tested on: SF-268; assay: NCI-60 five-dose assay; format: cell-based, human
Procedure: as §1

[9] = tested on: MDA-MB-435; assay: NCI-60 five-dose assay; format: cell-based, human
Procedure: as §1

[10] = tested on: COLO205; assay: NCI-60 five-dose assay; format: cell-based, human
Procedure: as §1

[11] = tested on: NCI-H23; assay: NCI-60 five-dose assay; format: cell-based, human
Procedure: as §1

[12] = tested on: SK-MEL-28; assay: NCI-60 five-dose assay; format: cell-based, human
Procedure: as §1

[13] = tested on: KM12; assay: NCI-60 five-dose assay; format: cell-based, human
Procedure: as §1

[14] = tested on: UACC-62; assay: NCI-60 five-dose assay; format: cell-based, human
Procedure: as §1

[15] = tested on: MDA-MB-231/ATCC; assay: NCI-60 five-dose assay; format: cell-based, human
Procedure: as §1

[16] = tested on: UO-31; assay: NCI-60 five-dose assay; format: cell-based, human
Procedure: as §1

[17] = tested on: NCI-H226; assay: NCI-60 five-dose assay; format: cell-based, human
Procedure: as §1

[18] = tested on: SW-620; assay: NCI-60 five-dose assay; format: cell-based, human
Procedure: as §1

[19] = tested on: MCF-7; assay: NCI-60 five-dose assay; format: cell-based, human
Procedure: as §1

[20] = tested on: SK-MEL-2; assay: NCI-60 five-dose assay; format: cell-based, human
Procedure: as §1

[21] = tested on: HCT-116; assay: NCI-60 five-dose assay; format: cell-based, human
Procedure: as §1

[22] = tested on: A549/ATCC; assay: NCI-60 five-dose assay; format: cell-based, human
Procedure: as §1

[23] = tested on: NCI-H552; assay: NCI-60 five-dose assay; format: cell-based, human
Procedure: as §1

[24] = tested on: BT-549; assay: NCI-60 five-dose assay; format: cell-based, human
Procedure: as §1

[25] = tested on: NCI-H460; assay: NCI-60 five-dose assay; format: cell-based, human
Procedure: as §1

[26] = tested on: HCT-15; assay: NCI-60 five-dose assay; format: cell-based, human
Procedure: as §1

[27] = tested on: HT29; assay: NCI-60 five-dose assay; format: cell-based, human; conditions: HT29
Procedure: as §1

[28] = tested on: M14; assay: NCI-60 five-dose assay; format: cell-based, human
Procedure: as §1

[29] = tested on: TK-10; assay: NCI-60 five-dose assay; format: cell-based, human
Procedure: as §1

[30] = tested on: U251; assay: NCI-60 five-dose assay; format: cell-based, human
Procedure: as §1

[31] = tested on: ACHN; assay: NCI-60 five-dose assay; format: cell-based, human
Procedure: as §1

[32] = tested on: NCI-H332M; assay: NCI-60 five-dose assay; format: cell-based, human
Procedure: as §1

[33] = tested on: OVCAR-8; assay: NCI-60 five-dose assay; format: cell-based, human
Procedure: as §1

[34] = tested on: HS 578T; assay: NCI-60 five-dose assay; format: cell-based, human
Procedure: as §1

[35] = tested on: CAKI-1; assay: NCI-60 five-dose assay; format: cell-based, human
Procedure: as §1

[36] = tested on: HCT-2998; assay: NCI-60 five-dose assay; format: cell-based, human
Procedure: as §1

[37] = tested on: A498; assay: NCI-60 five-dose assay; format: cell-based, human
Procedure: as §1

[38] = tested on: K-562; assay: NCI-60 five-dose assay; format: cell-based, human
[39] = tested on: leukemia cell panel; assay: NCI-60 five-dose assay, leukemia cell panel mean; format: cell-based, human; conditions: mean across the six leukemia cell lines
[40] = tested on: RPMI-8226; assay: NCI-60 five-dose assay; format: cell-based, human
[41] = tested on: melanoma cell lines; assay: NCI-60 five-dose assay, melanoma cell lines; format: cell-based, human; conditions: range over melanoma cell lines
Procedure: as §1

[42] = tested on: MOLT-4; assay: NCI-60 five-dose assay; format: cell-based, human
[43] = tested on: breast cancer cell lines; assay: NCI-60 five-dose assay, breast cancer cell lines; format: cell-based, human; conditions: range over breast cancer cell lines
Procedure: as §1

[44] = tested on: NCI 60 cancer cell line panel; assay: NCI-60 five-dose assay, full-panel means; format: cell-based; conditions: for GI50: read-out: Mean GI50 (MID GI50, full-panel mean-graph mid-point)
Procedure: as §1

[45] = tested on: PGA-1 cells; assay: alamarBlue cell viability assay; conditions: for IC50: read-out: PGA-1 IC50
[46] = tested on: HG-3 cells; assay: alamarBlue cell viability assay; conditions: HG-3, 24 h, read-out: HG-3 IC50
[47] = mean over NCI 60 cell line panel

O=C(/C=C/C12c3ccccc3C(c3ccccc31)C1C(=O)NC(=O)C12)c1ccc(F)cc1 (racemic) [Compound 23h]
IC50 ([1]; Homo sapiens, CLL cell): 3770 nM | GI50 ([2]; Homo sapiens): 2160 nM | GI50 ([3]; Homo sapiens, Malme-3M): 1600 nM | GI50 ([4]; Homo sapiens): 1850 nM | GI50 ([5]; Homo sapiens): 2130 nM | GI50 ([6]; Homo sapiens): 1960 nM | GI50 ([7]; Homo sapiens): 1650 nM | GI50 ([8]; Homo sapiens): 4560 nM | GI50 ([9]; Homo sapiens): 1930 nM | GI50 ([10]; Homo sapiens, COLO 205): 1790 nM | GI50 ([11]; Homo sapiens): 2610 nM | GI50 ([12]; Homo sapiens): 1980 nM | GI50 ([13]; Homo sapiens): 2180 nM | GI50 ([14]; Homo sapiens): 1660 nM | GI50 ([15]; Homo sapiens): 1640 nM | GI50 ([16]; Homo sapiens): 1120 nM | GI50 ([17]; Homo sapiens): 2040 nM | GI50 ([18]; Homo sapiens): 2270 nM | GI50 ([19]; Homo sapiens, MCF7): 885 nM | GI50 ([20]; Homo sapiens): 2480 nM | GI50 ([21]; Homo sapiens): 537 nM | GI50 ([22]; Homo sapiens): 2370 nM | GI50 ([23]; Homo sapiens): 1740 nM | GI50 ([24]; Homo sapiens): 1370 nM | GI50 ([25]; Homo sapiens): 1640 nM | GI50 ([26]; Homo sapiens): 1190 nM | GI50 ([27]; Homo sapiens, HT-29): 1860 nM | GI50 ([28]; Homo sapiens): 2140 nM | GI50 ([29]; Homo sapiens): 3180 nM | GI50 ([30]; Homo sapiens, U-251): 1840 nM | GI50 ([31]; Homo sapiens): 1390 nM | GI50 ([32]; Homo sapiens): 2640 nM | GI50 ([33]; Homo sapiens): 1430 nM | GI50 ([34]; Homo sapiens): 1820 nM | GI50 ([35]; Homo sapiens): 1020 nM | GI50 ([36]; Homo sapiens): 1700 nM | GI50 ([37]; Homo sapiens): 1160 nM | GI50 ([38]; Homo sapiens, K562, K-562): 1420 nM | GI50 ([38]; K-562): 1550 nM | GI50 ([39]; Homo sapiens): 1000 nM | GI50 ([40]; Homo sapiens, RPMI-8226, RPMI-8226): 1620 nM | GI50 ([40]; RPMI-8226): 1160 nM | GI50 ([41]; Homo sapiens): 1600 to 2480 nM | GI50 ([42]; Homo sapiens, MOLT-4, MOLT-4): 460 nM | GI50 ([42]; MOLT-4): 759 nM | GI50 ([43]; Homo sapiens): 885 to 1880 nM | GI50 ([44]; Homo sapiens, mean over NCI 60 cell line panel): 1700 nM | CC50 ([44]; Homo sapiens, mean over NCI 60 cell line panel, read-out: Mean LC50 (MID LC50)): 14400 nM | Mean TGI (MID TGI, total growth inhibition) [44, 47]: 4265 nM | IC50 ([45]; Homo sapiens, 24 h): 2880 nM | viability at 10 µM ([45]; Homo sapiens, 24 h, read-out: cell viability): 9% | IC50 ([46]; Homo sapiens): 4650 nM

O=C(/C=C/C12c3ccccc3C(c3ccccc31)C1C(=O)NC(=O)C12)c1ccc(Cl)cc1 (racemic) [Compound 23l, (E)-9-(3-(4-Chlorophenyl)-3-oxoprop-1-en-1-yl)-9,10-dihydro-9,10-[3,4]epipyrroloanthracene-12,14-dione]
IC50 [1]: 2720 nM | GI50 [2]: 1770 nM | GI50 ([3]; MALME-3M): 1510 nM | GI50 [4]: 1430 nM | GI50 [5]: 1560 nM | GI50 [6]: 1420 nM | GI50 [7]: 1600 nM | GI50 [8]: 1990 nM | GI50 [9]: 1680 nM | GI50 [10]: 1910 nM | GI50 [11]: 1780 nM | GI50 [12]: 1800 nM | GI50 [13]: 2140 nM | GI50 [14]: 1400 nM | GI50 [15]: 1880 nM | GI50 [16]: 1280 nM | GI50 [17]: 1920 nM | GI50 [18]: 1890 nM | GI50 [19]: 1340 nM | GI50 [20]: 1810 nM | GI50 [21]: 1230 nM | GI50 [22]: 2400 nM | GI50 [23]: 1460 nM | GI50 [24]: 1340 nM | GI50 [25]: 1800 nM | GI50 [26]: 1470 nM | GI50 [27]: 2270 nM | GI50 [28]: 1650 nM | GI50 [29]: 1920 nM | GI50 [30]: 1520 nM | GI50 [31]: 1650 nM | GI50 [32]: 1420 nM | GI50 [33]: 1130 nM | GI50 [34]: 1940 nM | GI50 [35]: 1240 nM | GI50 [36]: 1690 nM | GI50 [37]: 1280 nM | GI50 ([38]; K-562): 1990 nM | GI50 [39]: 1770 nM | GI50 ([40]; RPMI-8226): 1660 nM | GI50 [41]: 1400 to 1810 nM | GI50 ([42]; MOLT-4): 1700 nM | GI50 [43]: 1340 to 1940 nM | CC50 [44]: 13200 nM | Mean TGI (MID TGI, total growth inhibition) [44, 47]: 4265 nM | GI50 [44, 47]: 1620 nM | IC50 ([45]; PGA-1, 24 h): 3210 nM | IC50 [46]: 2230 nM
